Data published in patent US20250101038A1, “COMPOUNDS” (priority 2021, published 2025).
Like-named read-outs stand apart in the source and are kept apart here.

What was measured:
[1] = target: T1, 5-HT2B receptor (Homo sapiens, UniProt P41595); experiment: cell-based
T1 construct: host or cells: CHO-K1

[2] = target: T2, 5-HT2A receptor (Homo sapiens, UniProt P28223); experiment: FLIPR Ca2+ flux functional assay, 5-HT2A; format: cell-based
T2 construct: host or cells: HEK293
Protocol: Activity at 5-HT2A, 5-HT2B and 5-HT2C receptors was determined using a FLIPR Ca^2+ flux assay at WuXi AppTec Co. Ltd. (Hong Kong) Discovery Biology Unit according to their standard protocols. Briefly, stably transfected cells expressing the receptor of interest (HEK293 for 5-HT2A and 5-HT2C; CHO-K1 for 5-HT2B) were grown and plated in a 384 well plate and incubated at 37° C. and 5% CO2 overnight. A 250 mM stock solution of probenecid in FLIPR calcium assay buffer (10 mL) was freshly prepared and combined with a fluorescent dye (Fluo-4 Direct) to give a final assay concentration of 2.5 mM. Reference compounds were 4-fold serially diluted and the screening compounds were 3-fold serially diluted in 100% DMSO for 10 points using Agilent Bravo, and 750 nL was added to a 384 well compound plate using Echo along with 30 μL assay buffer. The fluorescent dye was then added to the assay plate along with assay buffer to a final volume of […]. The cell plate was incubated for 50 min at 37° C. and 5% CO2 and placed into the FLIPR Tetra along with the compound plate. 10 μL of references and compounds were then transferred from the compound plate into the cell plate and the fluorescent signal was read.

[3] = target: T3, 5-HT2C receptor (Homo sapiens, UniProt P28335); experiment: cell-based
T3 construct: host or cells: HEK293
T3 sequence (P28335 33-458): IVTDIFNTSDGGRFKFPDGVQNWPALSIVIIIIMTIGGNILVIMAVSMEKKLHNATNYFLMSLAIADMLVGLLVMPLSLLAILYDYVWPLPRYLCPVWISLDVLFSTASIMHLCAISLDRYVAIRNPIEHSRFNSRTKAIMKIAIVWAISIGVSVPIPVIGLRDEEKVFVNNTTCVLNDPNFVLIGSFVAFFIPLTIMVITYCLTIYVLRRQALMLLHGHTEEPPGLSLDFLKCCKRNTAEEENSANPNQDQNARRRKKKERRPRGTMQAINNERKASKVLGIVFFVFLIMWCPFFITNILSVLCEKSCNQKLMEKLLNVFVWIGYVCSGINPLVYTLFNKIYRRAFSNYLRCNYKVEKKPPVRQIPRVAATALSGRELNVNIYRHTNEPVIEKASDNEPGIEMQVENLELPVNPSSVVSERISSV

[4] = agonist activity, Ca2+ flux, CHO-K1 cells
[5] = agonist activity, Ca2+ flux, CHO-K1 cells, read-out: 5-HT2B EC50
[6] = agonist activity, Ca2+ flux, HEK293 cells
[7] = agonist activity, Ca2+ flux, HEK293 cells, read-out: 5-HT2A EC50
[8] = agonist activity, Ca2+ flux, HEK293 cells, read-out: 5-HT2C EC50

T2 sequence (P28223 whole entry): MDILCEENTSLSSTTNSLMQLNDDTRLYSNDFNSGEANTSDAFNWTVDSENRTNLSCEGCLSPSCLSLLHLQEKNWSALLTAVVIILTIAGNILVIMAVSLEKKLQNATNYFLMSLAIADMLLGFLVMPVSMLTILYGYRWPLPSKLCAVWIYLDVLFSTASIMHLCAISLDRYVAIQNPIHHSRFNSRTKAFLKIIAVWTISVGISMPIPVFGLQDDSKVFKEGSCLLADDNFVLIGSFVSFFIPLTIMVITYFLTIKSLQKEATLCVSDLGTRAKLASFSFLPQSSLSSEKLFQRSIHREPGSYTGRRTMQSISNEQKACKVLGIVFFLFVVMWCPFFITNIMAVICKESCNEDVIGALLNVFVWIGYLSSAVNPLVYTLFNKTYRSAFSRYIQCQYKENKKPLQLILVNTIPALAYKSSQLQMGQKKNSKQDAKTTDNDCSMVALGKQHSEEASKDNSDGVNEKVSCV
T1 sequence (P41595 whole entry): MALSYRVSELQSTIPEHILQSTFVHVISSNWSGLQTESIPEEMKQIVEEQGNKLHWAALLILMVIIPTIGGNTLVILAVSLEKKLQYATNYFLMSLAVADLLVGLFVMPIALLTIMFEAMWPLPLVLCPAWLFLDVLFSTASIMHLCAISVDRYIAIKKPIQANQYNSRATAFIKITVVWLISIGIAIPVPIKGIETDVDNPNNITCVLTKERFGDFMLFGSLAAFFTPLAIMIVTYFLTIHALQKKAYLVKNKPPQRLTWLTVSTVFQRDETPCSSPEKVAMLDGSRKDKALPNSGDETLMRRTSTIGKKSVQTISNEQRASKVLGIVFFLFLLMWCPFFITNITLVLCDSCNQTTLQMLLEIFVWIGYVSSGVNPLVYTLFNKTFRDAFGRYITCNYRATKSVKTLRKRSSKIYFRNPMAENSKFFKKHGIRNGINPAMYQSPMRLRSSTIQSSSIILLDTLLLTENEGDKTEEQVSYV

SMILES | Emax [1, 4] [%] | EC50 [1, 5] [µM] | Emax [2, 6] [%] | EC50 [2, 7] [nM] | Emax [3, 6] [%] | EC50 [3, 8] [nM] | 5-HT2B Emax [1, 4] [%] | 5-HT2A Emax [2, 6] [%] | 5-HT2C Emax [3, 6] [%] | EC50 [1] [µM] | EC50 [2] [nM] | EC50 [3] [nM]
CCN(CCc1c[nH]c2ccc(OC)c(C)c12)C(C)C [Example P-40, N-ethyl-N-(2-(5-methoxy-4-methyl-1H-indol-3-yl)ethyl)propan-2-amine] | 33.8 | > 10 | 78.4 | 894 | 0.71 | > 10000 | – | – | – | – | – | –
CCN(C)CCc1c[nH]c2ccc(C)c(OC)c12 [Example P-59, N-ethyl-2-(4-methoxy-5-methyl-1H-indol-3-yl)-N-methylethan-1-amine] | 68.1 | 4.71 | 78 | 34.6 | 90.5 | 43.8 | – | – | – | – | – | –
CCCN(CCC)CCc1c[nH]c2cc(C)c(OC)cc12 [Example P-48, N,N-dipropyl-2-(5-methoxy-6-methyl-1H-indol-3-yl)ethan-1-amine] | 56.8 | – | 77.5 | – | 74 | – | – | – | – | – | – | –
COc1cc(F)c2[nH]cc(CCN(C(C)C)C(C)C)c2c1 [Example P-118, N-(2-(7-fluoro-5-methoxy-1H-indol-3-yl)ethyl)-N-isopropylpropan-2-amine] | 95.2 | 0.0663 | 82.2 | 17.4 | 97.1 | 695 | – | – | – | – | – | –
COc1ccc(F)c2[nH]cc(CCN(C(C)C)C(C)C)c12 [Example P-105, N-(2-(7-fluoro-4-methoxy-1H-indol-3-yl)ethyl)-N-isopropylpropan-2-amine] | 127 | 0.134 | 91.2 | 147 | 92.6 | 1200 | – | – | – | – | – | –
COc1ccc2[nH]cc(CCN(C)C)c2c1C [Example P-6, 2-(5-methoxy-4-methyl-1H-indol-3-yl)-N,N-dimethylethan-1-amine] | 11.3 | > 10 | 64.1 | 124 | 73.6 | 303 | – | – | – | – | – | –
Cc1ccc2[nH]cc(CCN(C(C)C)C(C)C)c2c1O [Example P-69, 3-(2-(diisopropylamino)ethyl)-5-methyl-1H-indol-4-ol] | 66.9 | ≥ 10 | 78.8 | 245 | 70.2 | 3210 | – | – | – | – | – | –
CCN(CCc1c[nH]c2ccc(C)c(OC)c12)C(C)C [Example P-62, N-ethyl-N-(2-(4-methoxy-5-methyl-1H-indol-3-yl)ethyl)propan-2-amine] | 61.5 | 5.32 | 41.9 | 319 | 65.9 | 1290 | – | – | – | – | – | –
CCCN(CC)CCc1c[nH]c2cc(C)c(OC)cc12 [Example P-46, N-ethyl-N-(2-(5-methoxy-6-methyl-1H-indol-3-yl)ethyl)propan-1-amine] | – | 0.524 | – | 33.3 | – | 778 | 37.67 | 86.81 | 82.79 | – | – | –
COc1c(C)ccc2[nH]cc(CCN(C)C(C)C)c12 [Example P-60, N-(2-(4-methoxy-5-methyl-1H-indol-3-yl)ethyl)-N-methylpropan-2-amine] | 71 | 0.768 | 66.3 | 77.6 | 72.2 | 198 | – | – | – | – | – | –
CCN(C)CCc1c[nH]c2ccc(F)c(OC)c12 [Example P-92, N-ethyl-2-(5-fluoro-4-methoxy-1H-indol-3-yl)-N-methylethan-1-amine] | 25.1 | > 10 | 78 | 7.33 | 75.3 | 17.9 | – | – | – | – | – | –
CCN(C)CCc1c[nH]c2c(C)ccc(O)c12 [Example P-85, 3-(2-(ethyl(methyl)amino)ethyl)-7-methyl-1H-indol-4-ol] | 0.13 | – | 52 | – | 26.9 | – | – | – | – | – | – | –
CCN(C)CCc1c[nH]c2c(F)cc(OC)cc12 [Example P-115, N-ethyl-2-(7-fluoro-5-methoxy-1H-indol-3-yl)-N-methylethan-1-amine] | 16.4 | – | 85.6 | – | 81.7 | – | – | – | – | – | – | –
Cc1nc2c(ccc3[nH]cc(CCN(C)C(C)C)c32)o1 [Example P-133, N-methyl-N-(2-(2-methyl-6H-oxazolo[4,5-e]indol-8-yl)ethyl)propan-2-amine] | 22.4 | 0.0686 | 78.4 | 27.9 | 72.6 | 894 | – | – | – | – | – | –
COc1c(F)ccc2[nH]cc(CCN(C)C(C)C)c12 [Example P-93, N-(2-(5-fluoro-4-methoxy-1H-indol-3-yl)ethyl)-N-methylpropan-2-amine] | 51.5 | 0.0248 | 95.3 | 7.25 | 85.1 | 45.2 | – | – | – | – | – | –
CCN(CC)CCc1c[nH]c2c(C)cc(OC)cc12 [Example P-54, N, N-diethyl-2-(5-methoxy-7-methyl-1H-indol-3-yl)ethan-1-amine] | 7.69 | > 10 | 82.8 | 249 | 58 | 1750 | – | – | – | – | – | –
CN(C)CCc1c[nH]c2ccc(F)c(F)c12 [Example P-142, 2-(4,5-difluoro-1H-indol-3-yl)-N,N-dimethylethan-1-amine] | 2.92 | – | 70 | – | 118 | – | – | – | – | – | – | –
CN(C)CCc1c[nH]c2cc3ccoc3cc12 [Example P-2, 2-(5H-Furo[2,3-f]indol-7-yl)-N,N-dimethylethan-1-amine] | -1.07 | > 10 | 46.5 | 207 | 80.6 | 56.8 | – | – | – | – | – | –
Cc1ccc(O)c2c(CCN(C)C(C)C)c[nH]c12 [Example P-87, 3-(2-(isopropyl(methyl)amino)ethyl)-7-methyl-1H-indol-4-ol] | -0.38 | ≥ 10 | 62.4 | 113 | 4.33 | > 10000 | – | – | – | – | – | –
CCN(C)CCc1c[nH]c2cc(F)cc(F)c12 [Example P-148, 2-(4,6-difluoro-1H-indol-3-yl)-N-ethyl-N-methylethan-1-amine] | 35.6 | ≥ 10 | 78.9 | 51.4 | 35.6 | – | – | – | – | – | – | –
COc1ccc(F)c2[nH]cc(CCN(C)C(C)C)c12 [Example P-103, N-(2-(7-fluoro-4-methoxy-1H-indol-3-yl)ethyl)-N-methylpropan-2-amine] | 3.67 | > 10 | 61.8 | 34.6 | 7.02 | > 10000 | – | – | – | – | – | –
COc1cc2c(CCN(C(C)C)C(C)C)c[nH]c2cc1C [Example P-49, N-isopropyl-N-(2-(5-methoxy-6-methyl-1H-indol-3-yl)ethyl)propan-2-amine] | 74.8 | – | 83.5 | – | 87 | – | – | – | – | – | – | –
Cc1ccc2[nH]cc(CCN(C)C(C)C)c2c1O [Example P-66, 3-(2-(isopropyl(methyl)amino)ethyl)-5-methyl-1H-indol-4-ol] | 2.07 | ≥ 10 | 94.7 | 91.9 | 50.3 | 391 | – | – | – | – | – | –
CCCN(C)CCc1c[nH]c2c(C)cc(OC)cc12 [Example P-52, N-(2-(5-methoxy-7-methyl-1H-indol-3-yl)ethyl)-N-methylpropan-1-amine] | 1.37 | > 10 | 58 | 161 | 44.5 | 529 | – | – | – | – | – | –
CCN(C)CCc1c[nH]c2ccc3oc(C)nc3c12 [Example P-132, N-ethyl-N-methyl-2-(2-methyl-6H-oxazolo[4,5-e]indol-8-yl)ethan-1-amine] | 11.4 | – | 69.1 | – | 85.7 | – | – | – | – | > 10 | 20.6 | 177
CN(C)CCc1c[nH]c2cc3c(cc12)OCC3 [Example P-1, 2-(3,5-dihydro-2H-furo[2,3-f]indol-7-yl)-N,N-dimethylethan-1-amine] | 2.92 | > 10 | 63.9 | 139 | 82.3 | 134 | – | – | – | – | – | –
CCN(CC)CCc1c[nH]c2ccc3oc(C)nc3c12 [Example P-134, N,N-diethyl-2-(2-methyl-6H-oxazolo[4,5-e]indol-8-yl)ethan-1-amine] | 56.4 | – | 77.5 | – | 91.3 | – | – | – | – | 0.0599 | 20.3 | 429
